From patent US4307036A, “Method for preparing a mixture of stereoisomers of α-cyano-3-phenoxybenzyl 2-(4-substituted-phenyl)isovalerates” (Sumitomo Chemical Company, Limited, priority 1978, dated 1981)
Values after ≈ are worked out from the molar mass of the structure shown.

Legend:
[1] = Solubility, general statement; format: physicochemical; details: compared with fenvalerate Aα
[2] = reported in literature; cited from earlier work
[3] = test system: tobacco cut worm (Spodoptera litura); test: Insecticidal activity of fenvalerates on tobacco cut worm, leaf dip, 24 h (Test Example 1); format: in vivo; details: for Relative Efficacy: Activity of Fenvalerate (common product) was taken as 100; for LC50 (concentration required for 50% death) / LC50: fourth instar larvae, 24 hours, 20% emulsifiable concentrate diluted; for LC50 (concentration required for 50% death): 1440 min; for LC50: Spodoptera litura, foliar, 24 h, read-out: LC50 (concentration required for 50% death)
Description: Insecticidal activity of fenvalerates on tobacco cut worm (Spodoptera litura)
Fenvalerate Y obtained in Example 4, fenvalerate Y-rich fenvalerate obtained in Examples 5 and 6 and common fenvalerate were formulated into a 20% emulsifiable concentrate as usual (Composition: above pesticide 20%; xylene 70%; and Sorpol 3005X (a registered trademark of Toho Kagaku Co.) 10%). These emulsifiable concentrates were each diluted with water to a pre-determined concentration, and mixed with a spreader (Shin-Rino, a registered trademark of Nippon Noyaku Co.) of 3,000 times by weight based on the diluted liquor.
(§1) The dried leaves were placed in a plastic cup (diameter 10 cm, height 4 cm) at a rate of 2 leaves/cup, and the fourth instar larvae of tobacco cut worms were liberated therein. The dead and alive were examined after 24 hours and the values of LC50 (concentration required for 50% death) were obtained.
(§2) Experiments of three replications were carried out using 10 larvae per group.

[4] = test system: housefly (Musca domestica); test: Insecticidal activity of fenvalerates on housefly, topical application, 24 h (Test Example 2); format: in vivo; details: for Relative Efficacy: Activity of Fenvalerate (common product) was taken as 100; for LD50: CSMA-strain female adults, 0.5 μl to ventral thorax, 24 hours
Experimental: Insecticidal activity of fenvalerates on housefly (Musca domestica)
(§3) Each pesticide used in Examples 4 and 5 was diluted with acetone to a pre-determined concentration, and 0.5 μl of the solution was applied to the ventral thorax of CSMA-strain housefly female adults by means of a microsyringe. The adults were then liberated in a plastic cup (diameter 11 cm) wherein a bait (3% sugar water) was placed. The dead and alive were examined after 24 hours, and the values of LD50 were obtained.

[5] = test system: tobacco cut worm (Spodoptera litura); test: Insecticidal activity of difluoromethoxy esters on tobacco cut worm, leaf dip, 24 h (Test Example 7); format: in vivo; details: foliar, read-out: LC50 (concentration required for 50% death)
Description: Insecticidal activity of α-cyano-3-phenoxybenzyl 2-(4-difluoromethoxyphenyl)isovalerates on tobacco cut worm (Spodoptera litura)
Emulsifiable concentrates of difluoromethoxy ester Y and Y-rich difluoromethoxy ester formulated according to Preparation Example 12 and a 20% emulsifiable concentrate of common difluoromethoxy ester formulated in the same manner were each diluted with water to a predetermined concentration, and mixed with a spreader (Shin-Rino, a registered trademark of Nippon Noyaku Co.) of 3,000 times by weight based on the diluted liquor.
as §1, §2

[6] = test system: housefly (Musca domestica); test: Insecticidal activity of methoxy and ethoxy esters on housefly, topical application, 24 h (Test Example 8); format: in vivo; details: CSMA-strain female adults, 0.5 μl to ventral thorax
Experimental: Insecticidal activity of S phenylisovalerates (methoxy and ethoxy esters) on housefly (Musca domestica)
as §3, with “Each of S phenylisovalerate Y's and Y-rich S phenylisovalerates obtained” for “Each pesticide used”, “Examples 21 to 24” for “Examples 4”, “and common racemates” for “and 5”

[7] = Insecticidal and acaricidal activity, general statements; format: in vivo; details: diastereomers separated by recrystallization from hexane
[8] = test system: Houseflies (Musca domestica Linne); test: Spray test of difluoromethoxy esters on housefly (Test Example 6 A); format: in vivo
Experimental: (§4) Insecticidal activity of α-cyano-3-phenoxybenzyl 2-(4-difluoromethoxyphenyl)isovalerates on housefly, pea aphid and corn earworm
A. Housefly: Houseflies (Musca domestica Linne) were tested by placing 50 4- to 5-day old houseflies into spray cages and spraying with 0.6 ml of a solution of test compound. After spraying, the flies were anesthetized with CO2 and transferred to a recovery cage containing a milk pad for food. The cages were held for 18-20 hours after which mortality counts were made. Both dead and moribund were counted. The tests were conducted employing several different dosage rates of each test compound.
(§5) In each instance, the toxicity of the compound of the invention was compared to that of a standard pesticide (Parathion), its relative toxicity then being expressed in terms of the relationship between the amount of compound of the invention and the amount of the standard pesticide required to produce the same percentage (50) of mortality in the test insects or acarine. By assigning the standard pesticide an arbitrary rating of 100, the toxicities of the compounds of the invention were expressed in terms of the toxicity indexes, which compares the toxicity of the compounds of the invention with that of the standard pesticide.

[9] = test system: Pea aphids (Acyrthosiphon pisum Harris); test: Spray test of difluoromethoxy esters on pea aphid (Test Example 6 B); format: in vivo
Experimental: as §4
B. Pea Aphid: Pea aphids (Acyrthosiphon pisum Harris) were tested by placing about 100 aphids on broad bean plants. The plants were sprayed with dilutions of acetone solution of test compound into water containing an emulsifier and held in containers under laboratory conditions for 18 to 20 hours at which time the living aphids in the containers were counted. The tests were conducted employing several different dosage rates of each test compound.
as §5

[10] = test system: Corn earworm larvae (Heliothis zea Boddie); test: Spray test of difluoromethoxy esters on corn earworm larvae (Test Example 6 C); format: in vivo
Experimental: as §4
C. Corn Earworm: Corn earworm larvae (Heliothis zea Boddie) were tested by spraying broad bean plants with dilutions of acetone solution of test compound into water containing an emulsifier. Immediately after spraying, 5 larvae were transferred to each plant and held for 44-46 hours, at which time the dead and moribund larvae were counted. The tests were conducted employing several different dosage rates for each test compound.
as §5

[11] = Parathion = 100, 50% mortality, 18-20 hours, * High Knockdown
[12] = Parathion = 100, 50% mortality, 18 to 20 hours, * High Knockdown
[13] = Parathion = 100, 50% mortality, 44-46 hours, * High Knockdown
[14] = fourth instar larvae, 24 hours, emulsifiable concentrate diluted

CC(C)[C@H](C(=O)O[C@H](C#N)c1cccc(Oc2ccccc2)c1)c1ccc(Cl)cc1 (relative stereo) [fenvalerate Y]
solubilities [1]: greater than those of fenvalerate Aα
insecticidal and acaricidal activity [2]: highly active pesticide

CC(C)C(C(=O)OC(C#N)c1cccc(Oc2ccccc2)c1)c1ccc(Cl)cc1 (stereo not drawn) [Fenvalerate (common product), α-Cyano-3-phenoxybenzyl 2-(4-chlorophenyl)isovalerate, reference compound]
Relative Efficacy [3]: 100
LC50 (concentration required for 50% death) [3]: 7.4 ppm
Relative Efficacy [4]: 100
LD50 [4]: 0.031 μg/housefly

CC(C)[C@H](C(=O)O[C@H](C#N)c1cccc(Oc2ccccc2)c1)c1ccc(OC(F)F)cc1 (relative stereo) [Difluoromethoxy Ester Y, α-cyano-3-phenoxybenzyl 2-(4-difluoromethoxyphenyl)isovalerate]
LC50 ([5]; 24 h): 12 µg/mL (≈ 26.6 µM)

COc1ccc([C@@H](C(=O)O[C@H](C#N)c2cccc(Oc3ccccc3)c2)C(C)C)cc1 (relative stereo) [Methoxy Ester Y, α-cyano-3-phenoxybenzyl 2-(4-methoxyphenyl)isovalerate]
LD50 [6]: 0.17 μg/housefly

C#CC(OC(=O)C(c1ccc(Cl)cc1)C(C)C)c1cccc(Oc2ccccc2)c1 (stereo not drawn) [diastereomer (m.p. 51°-52° C.), α-ethynyl-3-phenoxybenzyl 2-(4-chlorophenyl)isovalerate]
insecticidal activity [7]: higher insecticidal activity

CCOc1ccc([C@@H](C(=O)O[C@H](C#N)c2cccc(Oc3ccccc3)c2)C(C)C)cc1 (relative stereo) [Ethoxy Ester Y, α-cyano-3-phenoxybenzyl 2-(4-ethoxyphenyl)isovalerate]
LD50 [6]: 0.28 μg/housefly

CC(C)[C@H](C(=O)O[C@@H](C#N)c1cccc(Oc2ccccc2)c1)c1ccc(OC(F)F)cc1 (relative stereo) [Same, X Isomer Pair, α-cyano-3-phenoxybenzyl 2-(4-difluoromethoxyphenyl)isovalerate]
Toxicity Index [8, 11]: 47
Toxicity Index [9, 12]: 45
Toxicity Index [10, 13]: 106

CC(C)C(C(=O)OC(C#N)c1cccc(Oc2ccccc2)c1)c1ccc(Cl)cc1 (stereo not shown) [Example 6]
Relative Efficacy [3]: 125
LC50 (concentration required for 50% death) [3]: 5.9 ppm

CC(C)[C@H](C(=O)O[C@H](C#N)c1cccc(Oc2ccccc2)c1)c1ccc(Cl)cc1 (relative stereo) [Example 4]
Relative Efficacy [3]: 195
LC50 [3]: 3.8 µg/mL (≈ 9.05 µM)
Relative Efficacy [4]: 207
LD50 [4]: 0.015 μg/housefly

CCOc1ccc(C(C(=O)OC(C#N)c2cccc(Oc3ccccc3)c2)C(C)C)cc1 (racemic) [Common Ethoxy Ester (racemate), α-cyano-3-phenoxybenzyl 2-(4-ethoxyphenyl)isovalerate]
LD50 [6]: 0.54 μg/housefly

CC(C)C(C(=O)OC(C#N)c1cccc(Oc2ccccc2)c1)c1ccc(OC(F)F)cc1 (stereo not drawn) [Y-Rich Difluoromethoxy Ester, α-cyano-3-phenoxybenzyl 2-(4-difluoromethoxyphenyl)isovalerate]
LC50 [5, 14]: 14 µg/mL (≈ 31 µM)

CC(C)[C@H](C(=O)O[C@H](C#N)c1cccc(Oc2ccccc2)c1)c1ccc(Cl)cc1 [fenvalerate Aα, (S)-α-cyano-3-phenoxybenzyl (S)-2-(4-substituted-phenyl)isovalerate]
insecticidal and acaricidal activity [2]: the most active stereoisomer of the four

CCOc1ccc(C(C(=O)OC(C#N)c2cccc(Oc3ccccc3)c2)C(C)C)cc1 (stereo not drawn) [Y-Rich Ethoxy Ester, α-cyano-3-phenoxybenzyl 2-(4-ethoxyphenyl)isovalerate]
LD50 [6]: 0.46 μg/housefly

CC(C)[C@H](C(=O)O[C@H](C#N)c1cccc(Oc2ccccc2)c1)c1ccc(OC(F)F)cc1 (relative stereo) [Same, Y Isomer Pair, α-cyano-3-phenoxybenzyl 2-(4-difluoromethoxyphenyl)isovalerate]
Toxicity Index ([8]; in vivo): 1100
Toxicity Index ([9]; in vivo): 1273
Toxicity Index ([10]; in vivo): 1544

CC(C)C(C(=O)OC(C#N)c1cccc(Oc2ccccc2)c1)c1ccc(Cl)cc1 (stereo not shown) [Example 5]
Relative Efficacy [3]: 172
LC50 [3]: 4.3 µg/mL (≈ 10.2 µM)
Relative Efficacy [4]: 172
LD50 [4]: 0.018 μg/housefly

C#CC(OC(=O)C(c1ccc(Cl)cc1)C(C)C)c1cccc(Oc2ccccc2)c1 (stereo not drawn) [diastereomer having a melting point of 87° to 88° C., α-ethynyl-3-phenoxybenzyl 2-(4-chlorophenyl)isovalerate]
insecticidal activity [7]: very weak insecticidal activity

COc1ccc(C(C(=O)OC(C#N)c2cccc(Oc3ccccc3)c2)C(C)C)cc1 (stereo not drawn) [Y-Rich Methoxy Ester, α-cyano-3-phenoxybenzyl 2-(4-methoxyphenyl)isovalerate]
LD50 [6]: 0.20 μg/housefly

CC(C)C(C(=O)OC(C#N)c1cccc(Oc2ccccc2)c1)c1ccc(OC(F)F)cc1 (racemic) [Common Difluoromethoxy Ester, α-cyano-3-phenoxybenzyl 2-(4-difluoromethoxyphenyl)isovalerate]
Toxicity Index [8, 11]: 219
Toxicity Index [9, 12]: 582
Toxicity Index [10, 13]: 773
LC50 [5, 14]: 23 µg/mL (≈ 50.9 µM)

COc1ccc(C(C(=O)OC(C#N)c2cccc(Oc3ccccc3)c2)C(C)C)cc1 (racemic) [Common Methoxy Ester (racemate), α-cyano-3-phenoxybenzyl 2-(4-methoxyphenyl)isovalerate]
LD50 [6]: 0.35 μg/housefly
